{
  "source": "ChEMBL document CHEMBL1121749",
  "about": "“Beta-adrenergic blocking agents. 21. threo-1-(Aryloxy)-3-(alkylamino)butan-2-ols” (J Med Chem, 1981)",
  "target": "Adrenergic receptor beta (Homo sapiens) (UniProt P08588+P07550+P13945)",
  "assay": "Beta adrenoceptor blocking potency by inhibition of 50% of the tachycardia produced by a submaximal dose of the isoproterenol (0.2ug/kg, intravenously).",
  "type": "functional",
  "conditions": "Felis catus",
  "note": "Activity calls are given as the source filed them. The rule behind the calls is not given here.",
  "data": [
    {"smiles": "CC(=O)Nc1ccc(OCC(O)C(C)NC(C)(C)C)cc1", "note": "(centres undefined)", "values": [
      {"measurement": "DOSE", "result": "inactive"}
    ]},
    {"smiles": "Cc1csc2cccc(OCC(O)C(C)NC(C)(C)C)c12", "note": "(centres undefined)", "values": [
      {"measurement": "DOSE", "result": "inactive"}
    ]},
    {"smiles": "CC(C)NC(C)C(O)COc1ccccc1-c1nc2ccccc2s1", "note": "(centres undefined)", "values": [
      {"measurement": "DOSE", "result": "inactive"}
    ]},
    {"smiles": "COc1ccc(CCNC(C)C(O)COc2ccc(CC(N)=O)cc2)cc1OC", "note": "(centres undefined)", "values": [
      {"measurement": "DOSE", "result": "inactive"}
    ]},
    {"smiles": "CC(NC(C)(C)C)C(O)COc1ccccc1/C=C/C#N", "note": "(centres undefined)", "values": [
      {"measurement": "DOSE", "result": "inactive"}
    ]},
    {"smiles": "CCC(=O)Nc1cccc2c(OCC(O)C(C)NC(C)(C)C)cccc12", "note": "(centres undefined)", "values": [
      {"measurement": "DOSE", "result": "inactive"}
    ]},
    {"smiles": "CC(=O)Nc1ccc(OCC(O)C(C)NC(C)C)cc1", "note": "(centres undefined)", "values": [
      {"measurement": "DOSE", "result": "inactive"}
    ]},
    {"smiles": "CC(NC(C)(C)C)C(O)COc1ccccc1C#N", "note": "(centres undefined)", "values": [
      {"measurement": "DOSE", "result": "inactive"}
    ]},
    {"smiles": "CCC(=O)Nc1ccc(OCC(O)C(C)NC(C)(C)C)c([N+](=O)[O-])c1", "note": "(centres undefined)", "values": [
      {"measurement": "DOSE", "result": "inactive"}
    ]},
    {"smiles": "COc1ccc(CCNC(C)C(O)COc2cccc3ccccc23)cc1OC", "note": "(centres undefined)", "values": [
      {"measurement": "DOSE", "result": "inactive"}
    ]},
    {"smiles": "CCC(=O)Nc1cccc2c(OCC(O)C(C)NC(C)C)cccc12", "note": "(centres undefined)", "values": [
      {"measurement": "DOSE", "result": "inactive"}
    ]},
    {"smiles": "CCOc1cc(CNC(=O)CC)ccc1OCC(O)C(C)NC(C)C", "note": "(centres undefined)", "values": [
      {"measurement": "DOSE", "result": "inactive"}
    ]},
    {"smiles": "CCNC(C)C(O)COc1ccc(NC(C)=O)cc1", "note": "(centres undefined)", "values": [
      {"measurement": "DOSE", "result": "inactive"}
    ]},
    {"smiles": "CC(C)NC(C)C(O)COc1ccc(Cl)c(Cl)c1", "note": "(centres undefined)", "values": [
      {"measurement": "DOSE", "result": "inactive"}
    ]},
    {"smiles": "CC(NC(C)(C)C)C(O)COc1cccc2sccc12", "note": "(centres undefined)", "values": [
      {"measurement": "DOSE", "result": "inactive"}
    ]},
    {"smiles": "CCNC(C)C(O)COc1ccc(CC(N)=O)cc1", "note": "(centres undefined)", "values": [
      {"measurement": "DOSE", "result": "inactive"}
    ]},
    {"smiles": "CC(NC(C)(C)C)C(O)COc1ccc(CC(N)=O)cc1F", "note": "(centres undefined)", "values": [
      {"measurement": "DOSE", "result": "inactive"}
    ]},
    {"smiles": "CC(C)CNC(C)C(O)COc1cccc2ccccc12", "note": "(centres undefined)", "values": [
      {"measurement": "DOSE", "result": "inactive"}
    ]},
    {"smiles": "CCC(=O)Nc1ccc(OCC(O)C(C)NC(C)(C)C)cc1", "note": "(centres undefined)", "values": [
      {"measurement": "DOSE", "result": "inactive"}
    ]},
    {"smiles": "CC(C)NC(C)C(O)COc1ccc(CC(N)=O)cc1", "note": "(centres undefined)", "values": [
      {"measurement": "DOSE", "result": "inactive"}
    ]},
    {"smiles": "C=CCc1cc(CC(N)=O)ccc1OCC(O)C(C)NC(C)(C)C", "note": "(centres undefined)", "values": [
      {"measurement": "DOSE", "result": "inactive"}
    ]},
    {"smiles": "CC(=O)Nc1ccc(OCC(O)C(C)NC(C)(C)CO)cc1", "note": "(centres undefined)", "values": [
      {"measurement": "DOSE", "result": "inactive"}
    ]},
    {"smiles": "CC(C)NC(C)C(O)COc1ccc2ccccc2c1", "note": "(centres undefined)", "values": [
      {"measurement": "DOSE", "result": "inactive"}
    ]},
    {"smiles": "Cc1ccc(OCC(O)C(C)NC(C)C)cc1", "note": "(centres undefined)", "values": [
      {"measurement": "DOSE", "result": "inactive"}
    ]},
    {"smiles": "CC(NC(C)(C)C)C(O)COc1cccc2ccccc12", "note": "(centres undefined)", "values": [
      {"measurement": "DOSE", "result": "inactive"}
    ]},
    {"smiles": "CC(NC(C)(C)C)C(O)COc1ccc(CC(N)=O)cc1", "note": "(centres undefined)", "values": [
      {"measurement": "DOSE", "result": "inactive"}
    ]},
    {"smiles": "CC(=O)Nc1ccc(OCC(O)C(C)N)cc1", "note": "(centres undefined)", "values": [
      {"measurement": "DOSE", "result": "inactive"}
    ]},
    {"smiles": "CC(C)CNC(=O)c1ccc(OCC(O)C(C)NC(C)C)c(Cl)c1", "note": "(centres undefined)", "values": [
      {"measurement": "DOSE", "result": "inactive"}
    ]},
    {"smiles": "CC(C)NC(C)C(O)COc1ccc(OCc2ccccc2)cc1", "note": "(centres undefined)", "values": [
      {"measurement": "DOSE", "result": "inactive"}
    ]}
  ]
}
